Target: T1, Kv7.2/7.3 (Homo sapiens, UniProt O43525+O43526)
T1 construct: host or cells: HEK cells, tetracycline-inducible expression
Experiment: Kv7.2/7.3 activation assay, QPatch planar patch-clamp, single concentration screen
Format: cell-based
Parameters: key: <1.2-fold increase over baseline (−); +/−: as a range from <1.2-fold increase over baseline (−) up to >6-fold increase over baseline (+++); as a range from <1.2-fold increase over baseline (−) up to >6-fold increase over baseline (+++); as a range from <1.2-fold increase over baseline (−) up to >6-fold increase over baseline (+++); >6-fold increase over baseline (+++)
Conditions: Kv7.2/Kv7.3 co-expressing HEK cells, compound 3 μM, steady-state current at end of 2 s pulse to −30 mV

Row | Compound | Kv7.2/7.3 Activity: increase in current over baseline
1 | CC(C)(O)CC(=O)Nc1nc2ccc(C(F)(F)F)cc2n1-c1ccc(OC(F)(F)F)cc1 [Example 137, 3-hydroxy-3-methyl-N-(1-(4-(trifluoromethoxy)phenyl)-6-(trifluoromethyl)-1H-benzo[d]imidazol-2-yl)butanamide] | +
2 | CC1(n2c(NC(=O)C[C@](C)(O)c3ccc(F)cc3)nc3ccc(C#N)cc32)CCC1 [Example 138, (S)-N-(6-cyano-1-(1-methylcyclobutyl)-1H-benzo[d]imidazol-2-yl)-3-(4-fluorophenyl)-3-hydroxybutanamide] | +
3 | CC1(n2c(NC(=O)C[C@](C)(O)c3ccccc3Cl)nc3ccc(C#N)cc32)CCC1 [Example 139, (S)-3-(2-chlorophenyl)-N-(6-cyano-1-(1-methylcyclobutyl)-1H-benzo[d]imidazol-2-yl)-3-hydroxybutanamide] | +
4 | CC1(n2c(NC(=O)C[C@](C)(O)c3ccc(Cl)cc3)nc3ccc(C#N)cc32)CCC1 [Example 140, (S)-3-(4-chlorophenyl)-N-(6-cyano-1-(1-methylcyclobutyl)-1H-benzo[d]imidazol-2-yl)-3-hydroxybutanamide] | +/−
5 | O=C(CC1(O)CCC1)Nc1nc2ccc(C(F)(F)F)cc2n1-c1cc(F)cc(F)c1 [Example 141, N-(1-(3,5-difluorophenyl)-6-(trifluoromethyl)-1H-benzo[d]imidazol-2-yl)-2-(1-hydroxycyclobutyl)acetamide] | +
6 | O=C(CC1(O)CCC1)Nc1nc2ccc(C(F)(F)F)cc2n1-c1ccc(OC(F)(F)F)cc1 [Example 142, 2-(1-hydroxycyclobutyl)-N-(1-(4-(trifluoromethoxy)phenyl)-6-(trifluoromethyl)-1H-benzo[d]imidazol-2-yl)acetamide] | ++
7 | CC(C)(O)CC(=O)Nc1nc2ccc(C(F)(F)F)cc2n1-c1ccc(F)c(F)c1 [Example 143, N-(1-(3,4-difluorophenyl)-6-(trifluoromethyl)-1H-benzo[d]imidazol-2-yl)-3-hydroxy-3-methylbutanamide] | ++
8 | CC(C)(O)CC(=O)Nc1nc2ccc(C(F)(F)F)cc2n1-c1ccc(OC(F)(F)F)c(F)c1 [Example 144, N-(1-(3-fluoro-4-(trifluoromethoxy)phenyl)-6-(trifluoromethyl)-1H-benzo[d]imidazol-2-yl)-3-hydroxy-3-methylbutanamide] | +
9 | O=C(CC1(O)CCC1)Nc1nc2ccc(C(F)(F)F)cc2n1-c1ccc(OC(F)(F)F)c(F)c1 [Example 145, N-(1-(3-fluoro-4-(trifluoromethoxy)phenyl)-6-(trifluoromethyl)-1H-benzo[d]imidazol-2-yl)-2-(1-hydroxycyclobutyl)acetamide] | ++

Reference: US12351559B2 (Biohaven Therapeutics Ltd., priority 2014, dated 2025)
